Data on 15 compounds can be found in PubChem BioAssay AID212 (DTP/NCI, 2004).

The experiment relates to BDF1 mice, colon carcinoma 38 sc, T/C %. Description: NCI In Vivo Anticancer Drug Screen. Data for tumor model Colon Carcinoma 38 (subcutaneous) in B6D2F1 (BDF1) mice. An outline of the steps:
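Mice with transplanted tumors are treated with compound or vehicle. Survival or tumor size is then measured in both groups. The ratio of treated to control gives the reported figure.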

[1] abbreviates: endpoint: median tumor weight (est.), dose: 5.0 mg/kg/injection, schedule: Q07DX002 (ip), vehicle: saline with Tween-80, higher = larger tumour.
The mark [2] stands for this setting: endpoint: median tumor weight (est.), dose: 10.0 mg/kg/injection, schedule: Q07DX002 (ip), vehicle: saline with Tween-80, higher = larger tumour.
Where [3] appears, read: endpoint: median tumor weight (est.), dose: 25.0 mg/kg/injection, schedule: Q07DX002 (ip), vehicle: saline, higher = larger tumour.
[4] abbreviates: endpoint: median tumor weight (est.), dose: 50.0 mg/kg/injection, schedule: Q07DX002 (ip), vehicle: saline, higher = larger tumour.
Where [5] appears, read: endpoint: median tumor weight (est.), dose: 100.0 mg/kg/injection, schedule: Q07DX002 (ip), vehicle: saline, higher = larger tumour.
Where [6] appears, read: endpoint: median tumor weight (est.), dose: 25.0 mg/kg/injection, schedule: Q07DX002 (ip), vehicle: saline with Tween-80, higher = larger tumour.
[7] abbreviates: endpoint: median tumor weight (est.), dose: 50.0 mg/kg/injection, schedule: Q07DX002 (ip), vehicle: saline with Tween-80, higher = larger tumour.
Setting [8] is: endpoint: median tumor weight (est.), dose: 200.0 mg/kg/injection, schedule: Q07DX002 (ip), vehicle: saline with Tween-80, higher = larger tumour.
[9] abbreviates: endpoint: median tumor weight (est.), dose: 400.0 mg/kg/injection, schedule: Q07DX002 (ip), vehicle: saline with Tween-80, higher = larger tumour.
Where [10] appears, read: endpoint: median tumor weight (est.), dose: 6.25 mg/kg/injection, schedule: Q07DX002 (ip), vehicle: saline with Tween-80, higher = larger tumour.
Where [11] appears, read: endpoint: median tumor weight (est.), dose: 12.5 mg/kg/injection, schedule: Q07DX002 (ip), vehicle: saline with Tween-80, higher = larger tumour.
The mark [12] stands for this setting: endpoint: median tumor weight (est.), dose: 12.5 mg/kg/injection, schedule: Q07DX002 (ip), vehicle: Klucel (hydroxypropylcellulose) (HPC), higher = larger tumour.
Where [13] appears, read: endpoint: median tumor weight (est.), dose: 25.0 mg/kg/injection, schedule: Q07DX002 (ip), vehicle: Klucel (hydroxypropylcellulose) (HPC), higher = larger tumour.
Setting [14] is: endpoint: median tumor weight (est.), dose: 50.0 mg/kg/injection, schedule: Q07DX002 (ip), vehicle: Klucel (hydroxypropylcellulose) (HPC), higher = larger tumour.
Where [15] appears, read: endpoint: median tumor weight (est.), dose: 12.5 mg/kg/injection, schedule: Q07DX003 (ip), vehicle: Klucel (hydroxypropylcellulose) (HPC), higher = larger tumour.
[16] abbreviates: endpoint: median tumor weight (est.), dose: 25.0 mg/kg/injection, schedule: Q07DX003 (ip), vehicle: Klucel (hydroxypropylcellulose) (HPC), higher = larger tumour.
Setting [17] is: endpoint: median tumor weight (est.), dose: 50.0 mg/kg/injection, schedule: Q07DX003 (ip), vehicle: Klucel (hydroxypropylcellulose) (HPC), higher = larger tumour.

Several values for one entry are separate records, joined by “and”; a condition that tells them apart may be missing. Equal entries are not always repeated. Results filed as inconclusive are left out.

Take `O=NN(CCCl)C(=O)NCCCl`: the T/C by setting is: (endpoint: median tumor weight (est.), dose: 1.0 mg/kg/injection, schedule: Q07DX002 (ip), vehicle: saline with Tween-80, higher = larger tumour) 92 % of control; (endpoint: median tumor weight (est.), dose: 2.5 mg/kg/injection, schedule: Q07DX002 (ip), vehicle: saline with Tween-80, higher = larger tumour) 66 % of control; (endpoint: median tumor weight (est.), dose: 3.0 mg/kg/injection, schedule: Q07DX002 (ip), vehicle: saline + alcohol, higher = larger tumour) 96 % of control; (endpoint: median tumor weight (est.), dose: 4.0 mg/kg/injection, schedule: Q07DX002 (ip), vehicle: saline with Tween-80, higher = larger tumour) 82 % of control; (endpoint: median tumor weight (est.), dose: 4.0 mg/kg/injection, schedule: Q07DX003 (ip), vehicle: saline with Tween-80, higher = larger tumour) 97 % of control and 98 % of control; under setting [1], 82 % of control. For the same compound, the T/C is 88 % of control (endpoint: median tumor weight (est.), dose: 6.0 mg/kg/injection, schedule: Q07DX002 (ip), vehicle: saline + alcohol, higher = larger tumour); 71 % of control and 87 % of control (endpoint: median tumor weight (est.), dose: 8.0 mg/kg/injection, schedule: Q07DX003 (ip), vehicle: saline with Tween-80, higher = larger tumour); 43 % of control under setting [2]; 59 % of control (endpoint: median tumor weight (est.), dose: 12.0 mg/kg/injection, schedule: Q07DX002 (ip), vehicle: saline + alcohol, higher = larger tumour); 15 % of control (endpoint: median tumor weight (est.), dose: 20.0 mg/kg/injection, schedule: Q07DX002 (ip), vehicle: saline with Tween-80, higher = larger tumour); 37 % of control (endpoint: median tumor weight (est.), dose: 24.0 mg/kg/injection, schedule: Q07DX002 (ip), vehicle: saline + alcohol, higher = larger tumour). Moreover, the T/C (endpoint: median tumor weight (est.), dose: 32.0 mg/kg/injection, schedule: Q07DX003 (ip), vehicle: saline with Tween-80, higher = larger tumour) was 24 % of control.
As to `Nc1ncnc2c1ncn2C1OC(CO)C(O)C1O` (configuration not stated), the T/C was 103 % of control (endpoint: median tumor weight (est.), dose: 12.5 mg/kg/injection, schedule: Q07DX002 (ip), vehicle: saline, higher = larger tumour); 115 % of control under setting [3]; 233 % of control (endpoint: median tumor weight (est.), dose: 25.0 mg/kg/injection, schedule: Q07DX003 (ip), vehicle: saline, higher = larger tumour); 85 % of control under setting [4]; 238 % of control (endpoint: median tumor weight (est.), dose: 50.0 mg/kg/injection, schedule: Q07DX003 (ip), vehicle: saline, higher = larger tumour); 80 % of control (endpoint: median tumor weight (est.), dose: 75.0 mg/kg/injection, schedule: Q07DX002 (ip), vehicle: saline, higher = larger tumour). Also, the T/C runs as follows: under setting [5], 110 % of control; (endpoint: median tumor weight (est.), dose: 150.0 mg/kg/injection, schedule: Q07DX002 (ip), vehicle: saline, higher = larger tumour) 97 % of control; (endpoint: median tumor weight (est.), dose: 300.0 mg/kg/injection, schedule: Q07DX002 (ip), vehicle: saline, higher = larger tumour) 105 % of control; (endpoint: median tumor weight (est.), dose: 600.0 mg/kg/injection, schedule: Q07DX002 (ip), vehicle: saline, higher = larger tumour) 116 % of control.
Consider `COC(=O)[C@@]12OC[C@]34[C@H]([C@@H](O)[C@@H]1O)[C@@]1(C)CC(=O)C(O)=C(C)[C@@H]1C[C@H]3OC(=O)[C@H](OC(=O)/C=C(\C)C(C)C)[C@@H]24`, for which the T/C reads like this: (endpoint: median tumor weight (est.), dose: 0.25 mg/kg/injection, schedule: Q07DX003 (ip), vehicle: other, higher = larger tumour) 72 % of control; (endpoint: median tumor weight (est.), dose: 0.5 mg/kg/injection, schedule: Q07DX003 (ip), vehicle: other, higher = larger tumour) 98 % of control.
Regarding `CCCCOC(=O)/C=C(\Br)C(=O)OCCCC`, the T/C under setting [6] was 76 % of control and 98 % of control; the T/C under setting [7] was 71 % of control and 85 % of control; the T/C (endpoint: median tumor weight (est.), dose: 100.0 mg/kg/injection, schedule: Q07DX002 (ip), vehicle: saline with Tween-80, higher = larger tumour) is 84 % of control and 91 % of control; the T/C under setting [8] was 81 % of control and 85 % of control; the T/C under setting [9] is 69 % of control.
Regarding `NC(N)=NC(N)=Nc1ccc(-c2ccc(N=C(N)N=C(N)N)cc2)cc1`, the T/C is 72 % of control (endpoint: median tumor weight (est.), dose: 3.12 mg/kg/injection, schedule: Q07DX002 (ip), vehicle: saline with Tween-80, higher = larger tumour); 61 % of control under setting [10]; 75 % of control under setting [11]; 69 % of control under setting [6]; 58 % of control under setting [7].
For `C=C(Cl)C(=NC(C)(C)C)Nc1ccccc1C`, the T/C by setting is: (endpoint: median tumor weight (est.), dose: 6.25 mg/kg/injection, schedule: Q07DX002 (ip), vehicle: Klucel (hydroxypropylcellulose) (HPC), higher = larger tumour) 68 % of control; under setting [12], 96 % of control; under setting [13], 76 % of control; under setting [14], 84 % of control; (endpoint: median tumor weight (est.), dose: 100.0 mg/kg/injection, schedule: Q07DX002 (ip), vehicle: Klucel (hydroxypropylcellulose) (HPC), higher = larger tumour) 113 % of control.
As for `CC(=O)[C@]1(O)Cc2c(O)c3c(c(O)c2[C@@H](OC2CC(N)C(O)C(C)O2)C1)C(=O)c1c(O)cccc1C3=O` (some centres not stated), the T/C (endpoint: median survival time, dose: 0.7 mg/kg/injection, schedule: Q07DX003 (iv), vehicle: water, higher = longer survival) is 87 % of control; the T/C (endpoint: median survival time, dose: 1.7 mg/kg/injection, schedule: Q07DX003 (iv), vehicle: water, higher = longer survival) is 107 % of control; the T/C (endpoint: median survival time, dose: 2.7 mg/kg/injection, schedule: Q07DX003 (iv), vehicle: water, higher = longer survival) was 176 % of control.
On to `OCC1OC(n2cnc3c(NO)ncnc32)C(O)C1O` (configuration not stated), for which the T/C is 88 % of control and 96 % of control under setting [12]; 89 % of control and 91 % of control under setting [13]; 121 % of control and 100 % of control under setting [14]; 118 % of control (endpoint: median tumor weight (est.), dose: 200.0 mg/kg/injection, schedule: Q07DX002 (ip), vehicle: Klucel (hydroxypropylcellulose) (HPC), higher = larger tumour); 96 % of control and 106 % of control (endpoint: median tumor weight (est.), dose: 400.0 mg/kg/injection, schedule: Q07DX002 (ip), vehicle: Klucel (hydroxypropylcellulose) (HPC), higher = larger tumour).
For `O=C/C(Cl)=C(/Cl)C(=O)O`, the T/C reads like this: under setting [1], 63 % of control; under setting [2], 113 % of control and 92 % of control.
`COc1cc(C(C)(C)C)cc(OC)c1C(O)(c1c(OC)cc(C(C)(C)C)cc1OC)c1c(OC)cc(C(C)(C)C)cc1OC`: the T/C under setting [11] is 70 % of control and 77 % of control; the T/C under setting [7] was 95 % of control and 102 % of control; the T/C under setting [8] is 88 % of control; the T/C under setting [9] was 62 % of control.
Regarding `N#CC(C#N)=C/C=C/c1cccc([N+](=O)[O-])c1`, the T/C by setting is: (endpoint: median tumor weight (est.), dose: 6.25 mg/kg/injection, schedule: Q07DX003 (ip), vehicle: Klucel (hydroxypropylcellulose) (HPC), higher = larger tumour) 79 % of control; under setting [15], 77 % of control; under setting [16], 76 % of control; under setting [17], 60 % of control.
On to `COC1C=CC23c4cc5c(cc4C(O)OC2CN(C)C3C1)OCO5` (configuration not stated), for which the T/C reads like this: (endpoint: median tumor weight (est.), dose: 18.75 mg/kg/injection, schedule: Q07DX002 (ip), vehicle: suspension in saline, higher = larger tumour) 91 % of control; (endpoint: median tumor weight (est.), dose: 37.5 mg/kg/injection, schedule: Q07DX002 (ip), vehicle: suspension in saline, higher = larger tumour) 82 % of control; (endpoint: median tumor weight (est.), dose: 75.0 mg/kg/injection, schedule: Q07DX002 (ip), vehicle: suspension in saline, higher = larger tumour) 105 % of control.
With `COC(=O)CC(N)C(=O)O` (configuration not stated), the T/C reads like this: under setting [3], 95 % of control; under setting [4], 70 % of control; under setting [5], 86 % of control; (endpoint: median tumor weight (est.), dose: 200.0 mg/kg/injection, schedule: Q07DX002 (ip), vehicle: saline, higher = larger tumour) 61 % of control; (endpoint: median tumor weight (est.), dose: 400.0 mg/kg/injection, schedule: Q07DX002 (ip), vehicle: saline, higher = larger tumour) 50 % of control.
As to `CC(=O)OCc1cc(=O)n(C)c2c3c4c(cc12)c(C)cc(=O)n4CO3`, the T/C reads like this: under setting [15], 121 % of control and 106 % of control; under setting [16], 108 % of control; under setting [17], 83 % of control; (endpoint: median tumor weight (est.), dose: 200.0 mg/kg/injection, schedule: Q07DX003 (ip), vehicle: Klucel (hydroxypropylcellulose) (HPC), higher = larger tumour) 94 % of control.
In the case of `COc1cc(O)c2c(O)c3c(c4c2c1[C@]1(C4)C(C)=CCCC1(C)C)[C@H](O)[C@@]1(O)CC(=O)C(C(N)=O)=C(O)[C@@]1(O)C3=O`, the T/C by setting is: under setting [10], 92 % of control and 97 % of control; under setting [6], 87 % of control and 101 % of control.
